Measured values taken from the supplement of paper PMC6045584.
± gives the standard deviation of the averaged measurements.

Compound: C=CCNC1=C2C[C@@H](C)C[C@H](OC)[C@H](O)[C@@H](C)/C=C(\C)[C@H](OC(N)=O)[C@@H](OC)/C=C\C=C(/C)C(=O)NC(=CC1=O)C2=O [17-AAG]
Assay: surviving fraction relative to DMSO-only wells; higher = less growth inhibition
Details: 0.5 nM; exposure time: 5 days
Outline: (§1)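 Log-phase tumour cell lines were seeded at 250–500 cells per well in 384-well plates. After 24 hours they were exposed continuously for five days to inhibitors at 0.5, 1, 5, 10, 50, 100, 500 and 1000 nM. Viability was read by CellTiter-Glo luminescence after 10 minutes at room temperature, and surviving fraction is luminescence normalised to the median of DMSO-only wells. Each line was screened three times and kept only if replicate Pearson r >0.7 and median Z' >0.3.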

Test System	surviving fraction
NCIH441 LUNG	0.906 ± 0.13
HCT15 LARGE INTESTINE	0.858 ± 0.04
SCC90 HEADNECK	0.866 ± 0.0092
MDAMB453 BREAST	1.01 ± 0.017
MG63 BONE	0.886 ± 0.028
A549 LUNG	0.923 ± 0.039
MDAMB468 BREAST	0.901 ± 0.05

Same assay, conditions: 1 nM; exposure time: 5 days

Test System	surviving fraction
NCIH441 LUNG	1.02 ± 0.04
HCT15 LARGE INTESTINE	0.852 ± 0.011
SCC90 HEADNECK	0.923 ± 0.12
MDAMB453 BREAST	1.04 ± 0.03
MG63 BONE	0.88 ± 0.012
A549 LUNG	0.909 ± 0.038
MDAMB468 BREAST	0.826 ± 0.03

Same assay, conditions: 5 nM; exposure time: 5 days

Test System	surviving fraction
NCIH441 LUNG	0.982 ± 0.046
HCT15 LARGE INTESTINE	0.864 ± 0.029
SCC90 HEADNECK	1 ± 0.11
MDAMB453 BREAST	0.842 ± 0.057
MG63 BONE	0.976 ± 0.028
A549 LUNG	0.91 ± 0.007
MDAMB468 BREAST	0.95 ± 0.039

Same assay, conditions: 10 nM; exposure time: 5 days

Test System	surviving fraction
NCIH441 LUNG	0.993 ± 0.074
HCT15 LARGE INTESTINE	0.792 ± 0.078
SCC90 HEADNECK	0.862 ± 0.079
MDAMB453 BREAST	0.356 ± 0.014
MG63 BONE	0.919 ± 0.017
A549 LUNG	0.813 ± 0.076
MDAMB468 BREAST	0.931 ± 0.04

Same assay, conditions: 50 nM; exposure time: 5 days

Test System	surviving fraction
NCIH441 LUNG	0.609 ± 0.069
HCT15 LARGE INTESTINE	0.479 ± 0.0076
SCC90 HEADNECK	0.793 ± 0.039
MDAMB453 BREAST	0.052 ± 0.027
MG63 BONE	0.957 ± 0.014
A549 LUNG	0.14 ± 0.014
MDAMB468 BREAST	0.92 ± 0.082

Same assay, conditions: 100 nM; exposure time: 5 days

Test System	surviving fraction
NCIH441 LUNG	0.416 ± 0.033
HCT15 LARGE INTESTINE	0.264 ± 0.0079
SCC90 HEADNECK	0.423 ± 0.064
MDAMB453 BREAST	0.048 ± 0.012
MG63 BONE	0.733 ± 0.021
A549 LUNG	0.06 ± 0.0044
MDAMB468 BREAST	0.31 ± 0.022

Same assay, conditions: 500 nM; exposure time: 5 days

Test System	surviving fraction
NCIH441 LUNG	0.3 ± 0.025
HCT15 LARGE INTESTINE	0.072 ± 0.0027
SCC90 HEADNECK	0.206 ± 0.042
MDAMB453 BREAST	0.0367 ± 0.0049
MG63 BONE	0.258 ± 0.0081
A549 LUNG	0.0547 ± 0.0032
MDAMB468 BREAST	0.219 ± 0.029

Same assay, conditions: 1000 nM; exposure time: 5 days

Test System	surviving fraction
NCIH441 LUNG	0.308 ± 0.018
HCT15 LARGE INTESTINE	0.0573 ± 0.0025
SCC90 HEADNECK	0.0677 ± 0.013
MDAMB453 BREAST	0.042 ± 0.018
MG63 BONE	0.173 ± 0.0036
A549 LUNG	0.0493 ± 0.00058
MDAMB468 BREAST	0.218 ± 0.021

Compound: COc1cc2c(cc1O)CC[C@@H]1[C@@H]2CC[C@]2(C)[C@@H](O)CC[C@@H]12 [2-METHOXYESTRADIOL]
Assay: as above
Details: 0.5 nM; exposure time: 5 days
Outline: as §1

Test System	surviving fraction
NCIH441 LUNG	1.1 ± 0.058
HCT15 LARGE INTESTINE	0.947 ± 0.027
SCC90 HEADNECK	0.927 ± 0.058
MDAMB453 BREAST	1.04 ± 0.059
MG63 BONE	0.991 ± 0.015
A549 LUNG	0.991 ± 0.016
MDAMB468 BREAST	0.994 ± 0.12

Same assay, conditions: 1 nM; exposure time: 5 days

Test System	surviving fraction
NCIH441 LUNG	1.03 ± 0.073
HCT15 LARGE INTESTINE	0.926 ± 0.028
SCC90 HEADNECK	0.721 ± 0.076
MDAMB453 BREAST	0.995 ± 0.032
MG63 BONE	1.008 ± 0.0075
A549 LUNG	0.9623 ± 0.0067
MDAMB468 BREAST	1.08 ± 0.056

Same assay, conditions: 5 nM; exposure time: 5 days

Test System	surviving fraction
NCIH441 LUNG	1.08 ± 0.036
HCT15 LARGE INTESTINE	0.959 ± 0.057
SCC90 HEADNECK	1.02 ± 0.1
MDAMB453 BREAST	1.02 ± 0.079
MG63 BONE	1.02 ± 0.014
A549 LUNG	0.983 ± 0.018
MDAMB468 BREAST	1.03 ± 0.053

Same assay, conditions: 10 nM; exposure time: 5 days

Test System	surviving fraction
NCIH441 LUNG	1.03 ± 0.065
HCT15 LARGE INTESTINE	0.914 ± 0.04
SCC90 HEADNECK	0.923 ± 0.12
MDAMB453 BREAST	1.02 ± 0.037
MG63 BONE	1.01 ± 0.018
A549 LUNG	0.945 ± 0.021
MDAMB468 BREAST	1.13 ± 0.072

Same assay, conditions: 50 nM; exposure time: 5 days

Test System	surviving fraction
NCIH441 LUNG	1.03 ± 0.097
HCT15 LARGE INTESTINE	1.01 ± 0.021
SCC90 HEADNECK	1 ± 0.1
MDAMB453 BREAST	1.08 ± 0.037
MG63 BONE	1.04 ± 0.029
A549 LUNG	1.02 ± 0.043
MDAMB468 BREAST	1.09 ± 0.055

Same assay, conditions: 100 nM; exposure time: 5 days

Test System	surviving fraction
NCIH441 LUNG	1.03 ± 0.084
HCT15 LARGE INTESTINE	0.929 ± 0.1
SCC90 HEADNECK	0.875 ± 0.099
MDAMB453 BREAST	1.05 ± 0.048
MG63 BONE	1.05 ± 0.021
A549 LUNG	1.05 ± 0.015
MDAMB468 BREAST	1.15 ± 0.065

Same assay, conditions: 500 nM; exposure time: 5 days

Test System	surviving fraction
NCIH441 LUNG	0.922 ± 0.09
HCT15 LARGE INTESTINE	0.0957 ± 0.014
SCC90 HEADNECK	0.185 ± 0.017
MDAMB453 BREAST	0.511 ± 0.072
MG63 BONE	0.971 ± 0.034
A549 LUNG	0.992 ± 0.025
MDAMB468 BREAST	1.01 ± 0.081

Same assay, conditions: 1000 nM; exposure time: 5 days

Test System	surviving fraction
NCIH441 LUNG	0.575 ± 0.093
HCT15 LARGE INTESTINE	0.0547 ± 0.0085
SCC90 HEADNECK	0.102 ± 0.013
MDAMB453 BREAST	0.257 ± 0.014
MG63 BONE	0.861 ± 0.03
A549 LUNG	0.544 ± 0.028
MDAMB468 BREAST	0.99 ± 0.064
